Experimental data taken from ChEMBL document CHEMBL1150286, “Discovery and optimization of triazolopyridazines as potent and selective inhibitors of the c-Met kinase” (J Med Chem, 2008).
Each block holds one compound with its values, some of them ahead of it.

Assays:
[1] = Clearance in rat liver microsomes; format: ADME, Microsome
[2] = Clearance in mouse liver microsomes; format: ADME, Microsome
[3] = Clearance in Sprague-Dawley rat at 0.25 mg/kg, iv; format: ADME, organism-based; set-up: dose 0.25 mg/kg, route intravenous; conditions: in vivo
[4] = Volume of distribution in steady state in Sprague-Dawley rat at 0.25 mg/kg, iv; format: ADME, organism-based; set-up: dose 0.25 mg/kg, route intravenous; conditions: in vivo, read-out: Vdss
[5] = Half life in Sprague-Dawley rat at 0.25 mg/kg, iv; format: ADME, organism-based; set-up: dose 0.25 mg/kg, route intravenous; conditions: in vivo
[6] = AUC (0 to infinity) in Sprague-Dawley rat at 2 mg/kg, po; format: ADME, organism-based; set-up: time infinity, dose 2 mg/kg, route oral; conditions: plasma
[7] = Bioavailability in Sprague-Dawley rat at 2 mg/kg, po; format: ADME, organism-based; conditions: in vivo
[8] = Drug level in orally dosed mouse plasma after 6 hrs; format: ADME, organism-based; conditions: po
Mus musculus = experiment: Inhibition of HGF-mediated c-Met phosphorylation in orally dosed mouse liver; format: functional; conditions: po
[9] = biological target: Mast/stem cell growth factor receptor Kit (Homo sapiens) (UniProt P10721); experiment: Inhibition of cKit
[10] = biological target: Tyrosine-protein kinase ABL1 (Homo sapiens) (UniProt P00519); experiment: Inhibition of Abl
[11] = biological target: Tyrosine-protein kinase JAK2 (Homo sapiens) (UniProt O60674); experiment: Inhibition of Jak2
[12] = biological target: Ribosomal protein S6 kinase alpha-5 (Homo sapiens) (UniProt O75582); experiment: Inhibition of Msk1
[13] = Inhibition of PKAalpha
[14] = biological target: Mitogen-activated protein kinase 3 (Homo sapiens) (UniProt P27361); experiment: Inhibition of Erk1
[15] = biological target: RAC-alpha serine/threonine-protein kinase (Homo sapiens) (UniProt P31749); experiment: Inhibition of PKBalpha
[16] = biological target: T1, Hepatocyte growth factor receptor (Homo sapiens, UniProt P08581); experiment: Inhibition of c-Met by HTRF assay
[17] = biological target: Vascular endothelial growth factor receptor 2 (Homo sapiens) (UniProt P35968); experiment: Inhibition of KDR
[18] = biological target: Tyrosine-protein kinase Lck (Homo sapiens) (UniProt P06239); experiment: Inhibition of Lck
[19] = biological target: Proto-oncogene tyrosine-protein kinase Src (Homo sapiens) (UniProt P12931); experiment: Inhibition of Src
[20] = biological target: Insulin-like growth factor 1 receptor (Homo sapiens) (UniProt P08069); experiment: Inhibition of IGF1R
[21] = biological target: Tyrosine-protein kinase BTK (Homo sapiens) (UniProt Q06187); experiment: Inhibition of Btk
[22] = biological target: Angiopoietin-1 receptor (Homo sapiens) (UniProt Q02763); experiment: Inhibition of Tie2
[23] = Inhibition of p38
[24] = biological target: Mitogen-activated protein kinase 9 (Homo sapiens) (UniProt P45984); experiment: Inhibition of JNK2
[25] = biological target: Cyclin-dependent kinase 5 (Homo sapiens) (UniProt Q00535); experiment: Inhibition of CDK5
[26] = biological target: T1, Hepatocyte growth factor receptor
Description: Inhibition of HGF-mediated c-Met phosphorylation in serum-starved human PC2 cells

[27] = biological target: Aurora kinase A (Homo sapiens) (UniProt O14965); experiment: Inhibition of Aur2
[28] = Clearance in Sprague-Dawley rat at 0.5 mg/kg, iv; format: ADME, organism-based; set-up: dose 0.5 mg/kg, route intravenous; conditions: in vivo
[29] = Volume of distribution in steady state in Sprague-Dawley rat at 0.5 mg/kg, iv; format: ADME, organism-based; set-up: dose 0.5 mg/kg, route intravenous; conditions: in vivo, read-out: Vdss
[30] = Half life in Sprague-Dawley rat at 0.5 mg/kg, iv; format: ADME, organism-based; set-up: dose 0.5 mg/kg, route intravenous; conditions: in vivo

- microsomal CLint [1]: 420 µL/min/mg
- microsomal CLint [2]: 173 µL/min/mg
- clearance [3]: 4 mL/min/kg
- Vd [4]: 0.35 L/kg
- half-life [5]: 2.58 h
- AUC(0-inf) [6]: 5100 ng·h/mL
- bioavailability [7]: 59%
SMILES: COc1ccc2c(OCc3nnc4ccc(-c5cc(C)ns5)nn34)ccnc2c1

- concentration at 6 h [8]: 6.7 µM
- Activity [9]: > 10 µM
- Activity [10]: > 10 µM
- Activity [11]: > 10 µM
- Activity [12]: > 10 µM
- Activity [13]: > 10 µM
- Activity [14]: > 10 µM
- Activity [15]: > 10 µM
- IC50 [16]: 4 nM
- microsomal CLint [1]: 190 µL/min/mg
- microsomal CLint [2]: 156 µL/min/mg
- clearance [3]: 0.967 mL/min/kg
- Vd [4]: 0.152 L/kg
- half-life [5]: 3.5 h
- AUC(0-inf) [6]: 7840 ng·h/mL
- bioavailability [7]: 22%
- Activity [17]: > 10 µM
- Activity [18]: > 10 µM
- Activity [19]: > 10 µM
- Activity [20]: > 10 µM
- Activity [21]: > 10 µM
- Activity [22]: > 10 µM
- Activity [23]: > 10 µM
- Activity [24]: > 10 µM
- Activity [25]: > 10 µM
- IC50 [26]: 7 nM
- Activity [27]: > 10 µM
SMILES: COc1ccc2c(OCc3nnc4ccc(-c5cc(F)c(F)c(F)c5)nn34)ccnc2c1
- ED90 (Mus musculus): 30 mg/kg

- microsomal CLint [1]: 131 µL/min/mg
- microsomal CLint [2]: 122 µL/min/mg
- clearance [28]: 6.17 mL/min/kg
- Vd [29]: 0.38 L/kg
- half-life [30]: 1 h
- AUC(0-inf) [6]: 2520 ng·h/mL
- bioavailability [7]: 43%
- IC50 [26]: 46 nM
SMILES: COc1ccc2c(OCc3nnc4ccc(-c5ccccc5)nn34)ccnc2c1 [AMG-208]
